Measured values from paper PMC11641657, “Innovative Approaches to Fucoxanthin Delivery: Characterization and Bioavailability of Solid Lipid Nanoparticles with Eco-Friendly Ingredients and Enteric Coating” (International Journal of Molecular Sciences, 2024).

Tests used:
[1] = set-up: method as in PMID 11694619; conditions: one of the lowest among studied carotenoids; cited from earlier work
[2] = In vitro dissolution test with enteric-coated capsule (SGF then SIF); format: physicochemical
Experimental: In this study, 7.8 mg of FN–SLNs and FN crystals were encapsulated in separate enteric-coated capsules. The capsules were placed in a glass bottle containing 2 mL of SGF and maintained at 37 °C, stirring at 120 rpm for the first 2 h. During this period, 100 µL samples were collected at predetermined intervals to assess the dissolution profiles of both formulations. Each time a sample was taken, 100 µL of the corresponding fluid was added to maintain the total volume. […] Following this, the SGF was replaced with 2 mL of SIF, and sampling continued at specified intervals. After each sampling, the collected solutions were centrifuged for 2 min (5000 rpm, 4 °C) to separate any undissolved particles. The supernatants were then extracted using methanol, allowing for the quantification of FN using high-performance liquid chromatography (HPLC).

[3] = Morphology by TEM and SEM; format: physicochemical; conditions: in aqueous medium
Experimental: The samples were analyzed by means of a transmission electron microscopy (TEM) (Thermo Scientific Talos F200C) operating at 80 KV. For TEM analysis, the samples were placed on copper grids XP-UC300 (Shanghai X-Pivot Optoelectronic Technology Co., Ltd., Shanghai, China). Scanning Electron Microscopy (SEM) was used to determine the structure of the lyophilized FN–SLN. FN–SLN was dispersed in water and spread on a double-sided conducting adhesive tape, then was pasted on a metallic stub. After drying, it was coated ([…]) with gold in a sputter coating unit for […] using an accelerated voltage of 15 KeV.

[4] = In vitro release study (dialysis cassette, SGF then SIF); format: physicochemical; conditions: 2 h SGF then SIF, 37 °C
Experimental: A 3 mL dispersion of solid lipid nanoparticles (SLNs) and fucoxanthin (FN) crystal at a concentration of 1 mg/mL/FN was placed in separate dialysis cassettes (Slide-A-Lyzer, Thermo Fisher Scientific, USA) with a molecular weight cutoff (MWCO) of 20 KDa. Each cassette was then immersed in 120 mL of release medium, consisting of 60% ethanol and 40% SGF, and maintained at 37 °C with a stirring speed of 120 rpm for the first 2 h. An appropriate amount of ethanol is necessary to be added to improve the release of FN in a water-based environment. Two hours later, SGF was replaced with SIF. Samples of 10 µL were periodically withdrawn from the internal compartment of the dialysis cassette, using methanol for extraction and dilution to determine the concentration of fucoxanthin. The remaining FN% was calculated with the following equation:(3) Releasing FX%=(1−Mt/M0)×100% where: M0 is the initial amount of FN, and Mt is the amount of FN calculated at a given incubation time.

[5] = In vivo pharmacokinetics test, oral dosing, FNOH in plasma by LC-MS/MS; conditions: after oral 10 mg/kg, parent FN
Experimental: The qualification and quantification of FN and FNOH in plasma samples was conducted using Nexera LC-40 (Shimadzu UPLC, Kyoto, Japan) coupled with AB 6500+ Q-trap mass spectrometry (ABSCIEX, Framinham, MA, USA), which was equipped with electrospray ionization (ESI). The mobile phase was composed of H2O (A: 0.1% formic acid and acetonitrile (B, 0.1% formic acid; A:B = 10:90, v/v) at a flow rate of 0.35 mL/min, and the injection volume was 5 µL. The analysis utilized a Kinetex EVO C18 column (2.1 mm × 100 mm, 2.6 μm) Phenomenex, Torrance, CA, USA), which was maintained at a temperature of 25 °C. The detection of the compounds (Table 6) was performed in positive ion mode under the following conditions: curtain gas at 35.0 L/h, collision gas medium, ion spray voltage at 5000 V, temperature at 400 °C, and ion source gases 1 and 2 both at 55 L/h. […] The data was acquired using AB Analyst 1.6.1 software (ABSCIEX, USA).
They were provided with standard rat chow and water and libitum throughout the study. The rats were acclimatized to the laboratory environment for 7 days prior to the start of the experiment to minimize stress-induced effects. […]
The plasma drug concentration data were fitted using a non-compartmental model, and pharmacokinetic parameters were calculated via Phoenix WinNonlin 8.1 (Certara Corporation, Princeton, NJ, USA).

[6] = Dispersion in ultra-pure water; format: physicochemical; conditions: visual

CC(=O)O[C@H]1CC(C)(C)C(=C=C/C(C)=C/C=C/C(C)=C/C=C/C=C(C)/C=C/C=C(\C)C(=O)C[C@@]23O[C@]2(C)C[C@@H](O)CC3(C)C)[C@](C)(O)C1 [FN, Fucoxanthin]
Bioavailability [1]: ~ 50 pmol/mg protein | Release rate throughout the 8-h observation period [2]: consistently low release rate | Overall average length of crystals [3]: exceeding 5 µm | Highest release rate in SGF and SIF [4]: 2.88% | Concentration of FN in rat plasma [5]: below the lowest limit of quantitation | Dispersion in water [6]: inadequate
